Legend:
[1] = system: isolated uterine smooth muscle; assay: Effects on isolated uterine smooth muscle of rats (relaxation of oxytocin pre-contracted preparations); format: cell-based
Procedure: Non-pregnant female Wistar rats weighing about 200 g were killed and the uteruses were isolated. Each uterine preparation (15 mm in length) was mounted vertically in an organ bath containing modified Locke-Ringer solution of following composition: 150 mM NaCl, 5.4 mM KCl, 0.36 mM CaCl₂, 0.19 mM MgCl₂, 4.8 mM NaHCO₃, 0.15 mM KH₂ PO₄, 0.56 mM Na₂ HPO₄ and 2.8 mM Glucose. The bath medium was maintained at 37 °C and was equilibrated with a gas mixture consisting of 95% O₂ + 5% CO₂. The uterine preparations were pre-contracted with oxytocin (10 ⁻² U/ml) and the muscle relaxations induced by the test compounds were recorded isotonically. The test compounds were added cumulatively to the bath. ED₅₀ values for concentration-response curves which produce 50% relaxations of the maximal relaxations (10 ⁻⁶ M isoproterenol) were calculated.

isolated atrium = assay: Effects on isolated atrium of guinea-pigs (spontaneous beating rate of right atrium); format: cell-based
Procedure: Male Hartley guinea-pigs weighing about 500 g were killed and the atria were isolated. Each right atrium was mounted vertically in an organ bath containing Krebs-Henseleit solution and the spontaneous beating rate was recorded. The bath medium was maintained at 30°C and was equilibrated with a gas mixture consisting of 95% O₂ + 5% CO₂. The test compounds were added cumulatively to the bath. ED₅₀ values for concentration-response curves which produce 50% increases of the basal spontaneous beating rate were calculated. The results are shown in Table 3 The selcctive relaxing activities of the compound of the present invention on the uterine and the bladder smooth muscle were compared with positive chronotropic effect in the atrium.

CC(C)(C)NCC(O)c1ccc(O)cc1Cl (single isomer, unassigned; (-)) [(-)-enantiomer, (-)-α -[(tert-Butylamino)methyl]-2-chloro-4-hydroxybenzyl alcohol]
effect relative to ritodrine ([1]; from the ED₅₀ values of Table 1, fold greater than ritodrine): ~25 fold
effect relative to the (+)-enantiomer ([1]; from the ED₅₀ values of Table 1, fold greater than the (+)-enantiomer): about 130 fold
Selectivity Bladder (isolated atrium; ED₅₀ value (positive chronotropic effect in the atrium) / ED₅₀ value (relaxing effect on the bladder smooth muscle)): 462
Selectivity Uterus (isolated atrium; ED₅₀ value (positive chronotropic effect in the atrium) / ED₅₀ value (relaxing effect on the uterine smooth muscle)): 21
